Drawing on US9981925B2, “Substituted benzo[d][1,2,3]triazines as p70S6K inhibitors” (Merck Patent GmbH, priority 2012, dated 2018), this text covers IC50 for 24 compounds.

Broadly, the IC50 is the concentration that gives 50% inhibition.

In one experiment the target is p70S6K (T412E mutant) (Homo sapiens (Human), UniProt P23443, T412E). Briefly: p70S6K enzyme assay. It is filed as biochemical. How it is done:
p70S6K inhibitor compounds were diluted and plated in 96 well plates. A reaction mixture including the following components were then added to the compound plate to initiate the enzyme reaction: p70S6K (3 nM, T412E mutant, Millipore) was mixed with 24 μM ATP in an assay buffer containing 100 mM Hepes (pH 7.5), 5 mM MgCl2, 1 mM DTT, 0.015% Brij and 1 μM of the substrate peptide FITC-AHA-[…]-OH (derived from the S6 ribosomal protein sequence, FITC=fluorescein isothiocyanate, AHA=6-aminohexanoic acid). The reaction was incubated for 90 min at 25° C., before the addition of 10 mM EDTA to stop the reaction. The proportion of substrate and product (phosphorylated) peptide was analyzed on a Caliper Life Sciences Lab Chip 3000, using a pressure of −1.4 psi, and upstream and downstream voltages of −3000 and −700, respectively. Product peaks were resolved before substrate peaks on the resulting chromatograms. To assess the inhibitory potential of the compounds, IC50 values were determined, as shown above.

For the next experiment, the target named is His-AKT (Full Length) (Homo sapiens (Human), UniProt P31749). The experiment in a line: AKT/PKB kinase assay. The experiment is classed as biochemical. How it is done:
In order to measure AKT inhibition in the Caliper Life Sciences LC3000, a TTP Mosquito liquid handling instrument was used to place 125 nl of the appropriate concentration of inhibitor in 100% DMSO (for a dose response curve calculation) into each well of a 384-well plate. To this reaction, the following components were added to a final volume of 12.5 μl: • 0.1 ng/μl His-AKT (Full Length) (Invitrogen, Part # P2999, Lot #641228C); • 160 μM ATP (Fluka, 02055); • 1 mM DTT (Sigma, D0632); • 1 mM MgCl2 (Sigma, M1028); • 1 μM substrate peptide (sequence FITC-AHA-[…]-NH2), synthesized by • Tufts Peptide Synthesis service; • 100 mM HEPES pH 7.5 (Calbiochem, 391338); and • 0.015% Brij-35 (Sigma, B4184).
The reaction was incubated for 90 min at 25° C., and then stopped by the addition of 70 μl of Stop buffer (100 mM HEPES pH 7.5, 0.015% Brij-35, 10 mM EDTA (Sigma, E7889)). The plate was read on a Caliper LC 3000 in an Off-Chip mobility shift assay format, using the following parameters for a 12-sipper chip: screening pressure −2.3 psi, upstream voltage −500, and downstream voltage −3000. These conditions cause unphosphorylated substrate and phosphorylated product peptide to resolve as separate peaks allowing direct measurement of percentage of conversion of substrate to product. The percent conversion was plotted against concentration of inhibitor to produce a sigmoidal dose response curve, from which an IC50 was calculated.

Where [1] appears, read: 24 μM ATP, 90 min at 25° C., Caliper mobility shift.
The mark [2] stands for this setting: 160 μM ATP, 90 min at 25° C., Caliper mobility shift.
Setting [3] is: value printed in the synthesis paragraph.

Sequence of His-AKT (Full Length) (P31749 whole entry): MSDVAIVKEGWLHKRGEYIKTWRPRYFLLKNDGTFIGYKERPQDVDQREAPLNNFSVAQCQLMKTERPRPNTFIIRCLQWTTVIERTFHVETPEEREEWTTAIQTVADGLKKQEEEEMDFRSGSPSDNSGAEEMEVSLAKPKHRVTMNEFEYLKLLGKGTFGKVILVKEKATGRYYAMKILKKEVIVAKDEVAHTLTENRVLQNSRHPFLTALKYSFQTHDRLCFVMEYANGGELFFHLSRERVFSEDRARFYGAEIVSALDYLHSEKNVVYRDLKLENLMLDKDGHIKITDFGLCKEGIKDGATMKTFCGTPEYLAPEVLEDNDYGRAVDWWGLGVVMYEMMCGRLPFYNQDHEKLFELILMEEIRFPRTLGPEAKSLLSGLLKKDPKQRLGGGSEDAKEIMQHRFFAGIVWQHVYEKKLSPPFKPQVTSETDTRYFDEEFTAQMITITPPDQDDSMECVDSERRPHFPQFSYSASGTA
Sequence of p70S6K (T412E mutant) (P23443 whole entry T412E): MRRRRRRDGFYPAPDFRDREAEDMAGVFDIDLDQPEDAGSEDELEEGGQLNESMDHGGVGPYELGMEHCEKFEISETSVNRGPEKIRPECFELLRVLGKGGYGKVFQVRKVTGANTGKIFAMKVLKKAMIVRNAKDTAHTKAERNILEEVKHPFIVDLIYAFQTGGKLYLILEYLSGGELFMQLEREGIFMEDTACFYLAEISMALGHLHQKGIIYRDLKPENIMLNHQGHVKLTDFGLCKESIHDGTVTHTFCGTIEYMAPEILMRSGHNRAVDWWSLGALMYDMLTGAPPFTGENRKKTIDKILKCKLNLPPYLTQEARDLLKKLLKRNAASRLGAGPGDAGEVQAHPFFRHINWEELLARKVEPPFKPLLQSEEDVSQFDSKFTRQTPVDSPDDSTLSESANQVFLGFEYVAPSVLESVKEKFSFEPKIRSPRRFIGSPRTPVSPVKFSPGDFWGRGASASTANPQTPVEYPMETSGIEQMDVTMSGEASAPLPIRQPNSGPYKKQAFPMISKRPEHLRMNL

For `NC(=O)c1cccc2c(NC3CNCCC3c3ccc(C(F)(F)F)cc3)nnnc12` (centres unmarked) [Compound 22, 4-((4-(4-(trifluoromethyl)phenyl)piperidin-3-yl)amino)benzo[d][1,2,3]triazine-8-carboxamide], the IC50 was below 25 nM on p70S6K (T412E mutant) (setting [1]) and 101 to 500 nM on His-AKT (Full Length) (setting [2]).

Take `NC(=O)c1ccnc2c(NC3CNCCC3c3ccc(F)c(Cl)c3)ncnc12` (centres unmarked) [Compound 23, 4-[4-(3-Chloro-4-fluoro-phenyl)-piperidin-3-ylamino]-pyrido[3,2-d]pyrimidine-8-carboxamide]: the IC50 at p70S6K (T412E mutant) (setting [1]) lay within 25 to 100 nM; at His-AKT (Full Length) (setting [2]), 101 to 500 nM.

Regarding `NC(=O)c1ccnc2c(NC3CNCCC3c3ccc(C(F)(F)F)cc3)ncnc12` (centres unmarked) [Compound 25, 4-((4-(4-(trifluoromethyl)phenyl)piperidin-3-yl)amino)pyrido[3,2-d]pyrimidine-8-carboxamide], the IC50 at p70S6K (T412E mutant) (setting [1]) is below 25 nM; on His-AKT (Full Length) (setting [2]), 501 to 1000 nM.

Regarding `CNC[C@@H](Nc1ncnc2c(C(N)=O)ccnc12)c1ccc(C(F)(F)F)c(F)c1` [Compound 26, 4-[(S)-1-(3-Fluoro-4-trifluoromethyl-phenyl)-2-methylamino-ethylamino]-pyrido[3,2-d]pyrimidine-8-carboxylic Acid Amide], the half-maximal inhibitory concentration (IC50) at p70S6K (T412E mutant) (setting [1]) and at His-AKT (Full Length) (setting [2]) was below 25 nM each time.

On to `NC(=O)c1ccnc2c(N[C@H](CN3CCC3)c3ccc(C(F)(F)F)cc3)ncnc12` [Compound 27, 4-[(S)-2-Azetidin-1-yl-1-(4-trifluoromethyl-phenyl)-ethylamino]-pyrido[3,2-d]pyrimidine-8-carboxylic Acid Amide], for which the IC50 is below 25 nM on p70S6K (T412E mutant) (setting [1]) and 101 to 500 nM at His-AKT (Full Length) (setting [2]).

As to `CNC[C@@H](Nc1ncnc2c(C(N)=O)ccnc12)c1ccc(F)c(Br)c1` [Compound 28, 4-[(S)-1-(3-Bromo-4-fluoro-phenyl)-2-methylamino-ethylamino]-pyrido[3,2-d]pyrimidine-8-carboxylic Acid Amide], the IC50 on p70S6K (T412E mutant) (setting [1]) and at His-AKT (Full Length) (setting [2]) was below 25 nM each time.

As to `CCNC[C@@H](Nc1ncnc2c(C(N)=O)ccnc12)c1ccc(C(F)(F)F)c(F)c1` [Compound 29, 4-[(S)-2-Ethylamino-1-(3-fluoro-4-trifluoromethyl-phenyl)-ethylamino]-pyrido[3,2-d]pyrimidine-8-carboxylic Acid Amide], the IC50 at p70S6K (T412E mutant) (setting [1]) was below 25 nM; at His-AKT (Full Length) (setting [2]), 25 to 100 nM.

As for `CCNC[C@@H](Nc1ncnc2c(C(N)=O)ccnc12)c1cc(F)c(OC)cc1F` [Compound 31, 4-[(S)-1-(2,5-Difluoro-4-methoxy-phenyl)-2-ethylamino-ethylamino]-pyrido[3,2-d]pyrimidine-8-carboxylic Acid Amide], the half-inhibitory concentration (IC50) at p70S6K (T412E mutant) (setting [1]) is 25 to 100 nM; at His-AKT (Full Length) (setting [2]), above 1000 nM.

Turning to `CNC[C@@H](Nc1ncnc2c(C(N)=O)ccnc12)c1cc(F)c(OC)cc1F` [Compound 32, 4-[(S)-1-(2,5-Difluoro-4-methoxy-phenyl)-2-methylamino-ethylamino]-pyrido[3,2-d]pyrimidine-8-carboxylic Acid Amide], the IC50 on p70S6K (T412E mutant) (setting [1]) is below 25 nM; on His-AKT (Full Length) (setting [2]), 101 to 500 nM.

Turning to `CCNC[C@@H](Nc1ncnc2c(C(N)=O)ccnc12)c1ccc(Cl)c(C(F)(F)F)c1` [Compound 33, 4-[(S)-1-(4-Chloro-3-trifluoromethyl-phenyl)-2-ethylamino-ethylamino]-pyrido[3,2-d]pyrimidine-8-carboxylic Acid Amide], the IC50 is below 25 nM at p70S6K (T412E mutant) (setting [1]) and 25 to 100 nM at His-AKT (Full Length) (setting [2]).

Regarding `CCNC[C@@H](Nc1ncnc2c(C(N)=O)ccnc12)c1cc(F)cc(C(F)(F)F)c1` [Compound 34, 4-[(S)-2-Ethylamino-1-(3-fluoro-5-trifluoromethyl-phenyl)-ethylamino]-pyrido[3,2-d]pyrimidine-8-carboxylic Acid Amide], the IC50 at p70S6K (T412E mutant) (setting [1]) lay within 25 to 100 nM; at His-AKT (Full Length) (setting [2]), 101 to 500 nM.

As to `CNC[C@@H](Nc1ncnc2c(C(N)=O)ccnc12)c1cc(F)cc(C(F)(F)F)c1` [Compound 35, 4-[(S)-1-(3-Fluoro-5-trifluoromethyl-phenyl)-2-methylamino-ethylamino]-pyrido[3,2-d]pyrimidine-8-carboxylic Acid Amide], the IC50 was below 25 nM on p70S6K (T412E mutant) (setting [1]) and 25 to 100 nM at His-AKT (Full Length) (setting [2]).

As to `NC(=O)c1ccnc2c(N[C@H](CN3CCC3)c3ccc(Cl)cc3)ncnc12` [Compound 36, 4-[(S)-2-Azetidin-1-yl-1-(4-chloro-phenyl)-ethylamino]-pyrido[3,2-d]pyrimidine-8-carboxylic Acid Amide], the figures for the half-maximal inhibitory concentration (IC50) on p70S6K (T412E mutant) (setting [1]) and at His-AKT (Full Length) (setting [2]) were below 25 nM and 101 to 500 nM, respectively.

For the compound `CC(C)c1ccc([C@@H](CN2CCC2)Nc2ncnc3c(C(N)=O)ccnc23)cc1` [Compound 37, 4-[(S)-2-Azetidin-1-yl-1-(4-isopropyl-phenyl)-ethylamino]-pyrido[3,2-d]pyrimidine-8-carboxylic Acid Amide], the values for the IC50 at p70S6K (T412E mutant) (setting [1]) and on His-AKT (Full Length) (setting [2]) were below 25 nM and 501 to 1000 nM, respectively.

Consider `CNC[C@@H](Nc1ncnc2c(C(N)=O)ccnc12)c1ccc(C(F)(F)F)cc1` [Compound 38, 4-[(S)-2-Methylamino-1-(4-trifluoromethyl-phenyl)-ethylamino]-pyrido[3,2-d]pyrimidine-8-carboxylic Acid Amide], for which the results for the IC50 on p70S6K (T412E mutant) (setting [1]) and on His-AKT (Full Length) (setting [2]) were below 25 nM and 25 to 100 nM, respectively.

With `CNC[C@@H](Nc1ncnc2c(C(N)=O)ccnc12)c1ccc(C(C)C)cc1` [Compound 39, 4-[(S)-1-(4-Isopropyl-phenyl)-2-methylamino-ethylamino]-pyrido[3,2-d]pyrimidine-8-carboxylic Acid Amide], the IC50 was below 25 nM on p70S6K (T412E mutant) (setting [1]) and 101 to 500 nM on His-AKT (Full Length) (setting [2]).

As for `CNC[C@@H](Nc1ncnc2c(C(N)=O)nccc12)c1ccc(C(C)C)cc1` [Compound 40, 4-[(S)-1-(4-Isopropyl-phenyl)-2-methylamino-ethylamino]-pyrido[3,4-d]pyrimidine-8-carboxylic Acid Amide], the figures for the IC50 on p70S6K (T412E mutant) (setting [1]) and at His-AKT (Full Length) (setting [2]) were 25 to 100 nM and above 1000 nM, respectively.

`NC(=O)c1ccnc2c(N[C@H](CN3CCC3)c3ccc(Cl)c(C(F)(F)F)c3)ncnc12` [Compound 41, 4-[(S)-2-Azetidin-1-yl-1-(4-chloro-3-trifluoromethyl-phenyl)-ethylamino]-pyrido[3,2-d]pyrimidine-8-carboxamide]: the IC50 at p70S6K (T412E mutant) (setting [1]) is below 25 nM; at p70S6K (T412E mutant) (setting [3]) it was 1.6 nM; at His-AKT (Full Length) (setting [2]), below 25 nM; against His-AKT (Full Length) (setting [3]), 11 nM.

As to `CNC[C@@H](Nc1ncnc2c(C(N)=O)nccc12)c1ccc(Cl)c(C(F)(F)F)c1` [Compound 42, 4-[(S)-1-(4-Chloro-3-trifluoromethyl-phenyl)-2-methylamino-ethylamino]-pyrido[3,4-d]pyrimidine-8-carboxylic Acid Amide], the IC50 at p70S6K (T412E mutant) (setting [1]) and at His-AKT (Full Length) (setting [2]) was below 25 nM throughout.

As to `CNC[C@@H](Nc1ncnc2c(C(N)=O)ccnc12)c1ccc(C(F)(F)F)c(C(F)(F)F)c1` [Compound 43, 4-[(S)-1-(3,4-Bis-trifluoromethyl-phenyl)-2-methylamino-ethylamino]-pyrido[3,2-d]pyrimidine-8-carboxylamide], the IC50 at p70S6K (T412E mutant) (setting [1]) and on His-AKT (Full Length) (setting [2]) was below 25 nM each time.

Turning to `CNC[C@@H](Nc1ncnc2c(C(N)=O)ccnc12)c1ccc(Cl)c(C)c1` [Compound 44, 4-[(S)-1-(4-Chloro-3-methyl-phenyl)-2-methylamino-ethylamino]-pyrido[3,2-d]pyrimidine-8-carboxylic Acid Amide], the IC50 on p70S6K (T412E mutant) (setting [1]) and at His-AKT (Full Length) (setting [2]) was below 25 nM in each case.

In the case of `CNC[C@@H](Nc1ncnc2c(C(N)=O)ccnc12)c1ccc(Cl)cc1` [Compound 45, 4-[(S)-1-(4-Chloro-phenyl)-2-methylamino-ethylamino]-pyrido[3,2-d]pyrimidine-8-carboxylic Acid Amide], the IC50 on p70S6K (T412E mutant) (setting [1]) was below 25 nM; at His-AKT (Full Length) (setting [2]), 25 to 100 nM.

In the case of `Cc1cc([C@@H](CN2CCC2)Nc2ncnc3c(C(N)=O)ccnc23)ccc1Cl` [Compound 46, 4-[(S)-2-Azetidin-1-yl-1-(4-chloro-3-methyl-phenyl)-ethylamino]-pyrido[3,2-d]pyrimidine-8-carboxylic Acid Amide], the half-inhibitory concentration (IC50) on p70S6K (T412E mutant) (setting [1]) and on His-AKT (Full Length) (setting [2]) was below 25 nM in each case.

As for `CNC[C@@H](Nc1ncnc2c(C(N)=O)ccnc12)c1ccc(F)c(C(F)(F)F)c1` [Compound 49, 4-[(S)-1-(4-Fluoro-3-trifluoromethyl-phenyl)-2-methylamino-ethylamino]-pyrido[3,2-d]pyrimidine-8-carboxylic Acid Amide], the IC50 at p70S6K (T412E mutant) (setting [1]) and on His-AKT (Full Length) (setting [2]) was below 25 nM each time.
